In the assay the target is T1, Bcl-2 protein (Recombinant Human Bcl-2 Protein) (Homo sapiens, UniProt P10415).
T1 construct: purchased Novus Biologicals NBP2-34889
As to the kind of experiment: AS-MS evaluation of binding of the Example 4 mixture library (1200 compounds/well) to Bcl-2, ASMS ratio (%). Conditions: AS-MS, Example 4 mixture library; for ASMS ratio (%) n = 1: Bcl-2, replicate n = 1; for ASMS ratio (%) n = 2: Bcl-2, replicate n = 2. The method in brief: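 Recombinant human Bcl-2 at 20 μM final was exposed to a 1200-member compound pool (20 nM per compound) in pH 7.4 Tris-HCl buffer containing NaCl, Tween-20 and DTT. After 1 h at 23 °C, protein–ligand complexes passed SEC spin columns; LC/MS signals were compared with protein-free standard and blank samples to give ASMS ratio.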

T1 sequence (P10415 whole entry): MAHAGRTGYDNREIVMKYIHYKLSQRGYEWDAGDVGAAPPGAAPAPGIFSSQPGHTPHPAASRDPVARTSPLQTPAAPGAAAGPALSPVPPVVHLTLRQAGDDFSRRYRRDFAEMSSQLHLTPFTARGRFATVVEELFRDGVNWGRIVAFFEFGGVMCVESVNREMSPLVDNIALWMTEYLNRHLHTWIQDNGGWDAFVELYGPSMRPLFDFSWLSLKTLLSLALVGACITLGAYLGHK

On to `CCOc1cncc(-c2csc(C(=O)N3CCN(c4ccc(C(=O)NS(=O)(=O)CCC(F)(F)F)nn4)CC3)c2)c1` [Compound B2N002-01, 6-[4-[4-(5-Ethoxypyridin-3-yl)thiophene-2-carbonyl]piperazin-1-yl]-N-(3,3,3-trifluoropropylsulfonyl)pyridazine-3-carboxamide], for which the “ASMS ratio (%) n = 1” value is reported as 0.0% and the “ASMS ratio (%) n = 2” value was 0.0%.

Regarding `CCOc1cccc(-c2ccc(C(=O)N3CCN(c4ccc(C(=O)NS(=O)(=O)CCC(F)(F)F)nn4)CC3)cc2C)c1` [Compound B2N003-01, 6-[4-[4-(3-Ethoxyphenyl)-3-methylbenzoyl]piperazin-1-yl]-N-(3,3,3-trifluoropropylsulfonyl)pyridazine-3-carboxamide], the “ASMS ratio (%) n = 1” value was 0.0% and the “ASMS ratio (%) n = 2” value turned out to be 0.0%.

For `CCOc1cncc(-c2ccc(C(=O)N3CCN(c4ccc(C(=O)NS(=O)(=O)CCC(F)(F)F)nn4)CC3)cc2C)c1` [Compound B2N004-01, 6-[4-[4-(5-Ethoxypyridin-3-yl)-3-methylbenzoyl]piperazin-1-yl]-N-(3,3,3-trifluoropropylsulfonyl)pyridazine-3-carboxamide], the “ASMS ratio (%) n = 1” value turned out to be 1.2% and the “ASMS ratio (%) n = 2” value was −2.0%.

Take `CCOc1cccc(C#Cc2ccccc2C(=O)N2CCN(c3ccc(C(=O)NS(=O)(=O)CCC(F)(F)F)nn3)CC2)c1` [Compound B2N007-01, 6-[4-[2-[2-(3-Ethoxyphenyl)ethynyl]benzoyl]piperazin-1-yl]-N-(3,3,3-trifluoropropylsulfonyl)pyridazine-3-carboxamide]: the “ASMS ratio (%) n = 1” value is listed as 0.0% and the “ASMS ratio (%) n = 2” value is recorded as 0.0%.

On to `CCOc1cncc(C#Cc2ccccc2C(=O)N2CCN(c3ccc(C(=O)NS(=O)(=O)CCC(F)(F)F)nn3)CC2)c1` [Compound B2N008-01, 6-[4-[2-[2-(5-Ethoxypyridin-3-yl)ethynyl]benzoyl]piperazin-1-yl]-N-(3,3,3-trifluoropropylsulfonyl)pyridazine-3-carboxamide], for which the “ASMS ratio (%) n = 1” value is 0.0% and the “ASMS ratio (%) n = 2” value is −0.4%.

Consider `CCOc1cccc(C#Cc2cncc(C(=O)N3CCN(c4ccc(C(=O)NS(=O)(=O)CCC(F)(F)F)nn4)CC3)c2)c1` [Compound B2N009-01, 6-[4-[5-[2-(3-Ethoxyphenyl)ethynyl]pyridine-3-carbonyl]piperazin-1-yl]-N-(3,3,3-trifluoropropylsulfonyl)pyridazine-3-carboxamide], for which the “ASMS ratio (%) n = 1” value was found to be 0.0% and the “ASMS ratio (%) n = 2” value is on record as −0.4%.

`CCOc1cncc(C#Cc2cncc(C(=O)N3CCN(c4ccc(C(=O)NS(=O)(=O)CCC(F)(F)F)nn4)CC3)c2)c1` [Compound B2N010-01, 6-[4-[5-[2-(5-Ethoxypyridin-3-yl)ethynyl]pyridine-3-carbonyl]piperazin-1-yl]-N-(3,3,3-trifluoropropylsulfonyl)pyridazine-3-carboxamide]: the “ASMS ratio (%) n = 1” value was 0.0% and the “ASMS ratio (%) n = 2” value amounted to 0.0%.

Consider `CCOc1cccc(-c2ccccc2CCC(=O)N2CCN(c3ccc(C(=O)NS(=O)(=O)CCC(F)(F)F)nn3)CC2)c1` [Compound B2N011-01, 6-[4-[3-[2-(3-Ethoxyphenyl)phenyl]propanoyl]piperazin-1-yl]-N-(3,3,3-trifluoropropylsulfonyl)pyridazine-3-carboxamide], for which the “ASMS ratio (%) n = 1” value is reported as 0.0% and the “ASMS ratio (%) n = 2” value turned out to be 0.0%.

Regarding `CCOc1cncc(-c2ccccc2CCC(=O)N2CCN(c3ccc(C(=O)NS(=O)(=O)CCC(F)(F)F)nn3)CC2)c1` [Compound B2N012-01, 6-[4-[3-[2-(5-Ethoxypyridin-3-yl)phenyl]propanoyl]piperazin-1-yl]-N-(3,3,3-trifluoropropylsulfonyl)pyridazine-3-carboxamide], the “ASMS ratio (%) n = 1” value came out at 0.0% and the “ASMS ratio (%) n = 2” value turned out to be 0.0%.

As for `CCOc1cccc(-c2ccc(C(=O)N3CCN(c4ccc(C(=O)NS(=O)(=O)CCC(F)(F)F)nn4)CC3)c3ccccc23)c1` [Compound B2N013-01, 6-[4-[4-(3-Ethoxyphenyl)naphthalene-1-carbonyl]piperazin-1-yl]-N-(3,3,3-trifluoropropylsulfonyl)pyridazine-3-carboxamide], the “ASMS ratio (%) n = 1” value was found to be 0.0% and the “ASMS ratio (%) n = 2” value was 0.0%.

Take `CCOc1cncc(-c2ccc(C(=O)N3CCN(c4ccc(C(=O)NS(=O)(=O)CCC(F)(F)F)nn4)CC3)c3ccccc23)c1` [Compound B2N014-01, 6-[4-[4-(5-Ethoxypyridin-3-yl)naphthalene-1-carbonyl]piperazin-1-yl]-N-(3,3,3-trifluoropropylsulfonyl)pyridazine-3-carboxamide]: the “ASMS ratio (%) n = 1” value came to 0.0% and the “ASMS ratio (%) n = 2” value turned out to be 0.0%.

On to `CCOc1cncc(-c2cc(C(=O)N3CCN(c4ccc(C(=O)NS(=O)(=O)CCC(F)(F)F)nn4)CC3)cc(C(C)(C)C)c2)c1` [Compound B2N016-01, 6-[4-[3-tert-Butyl-5-(5-ethoxypyridin-3-yl)benzoyl]piperazin-1-yl]-N-(3,3,3-trifluoropropylsulfonyl)pyridazine-3-carboxamide], for which the “ASMS ratio (%) n = 1” value is on record as 0.0% and the “ASMS ratio (%) n = 2” value is recorded as 0.0%.

For the molecule `CCOc1cncc(-c2cc(C(=O)N3CCN(c4ccc(C(=O)NS(=O)(=O)CCC(F)(F)F)nn4)CC3)cc(C(F)(F)F)c2)c1` [Compound B2N018-01, 6-[4-[3-(5-Ethoxypyridin-3-yl)-5-(trifluoromethyl)benzoyl]piperazin-1-yl]-N-(3,3,3-trifluoropropylsulfonyl)pyridazine-3-carboxamide], the “ASMS ratio (%) n = 1” value was found to be 0.0% and the “ASMS ratio (%) n = 2” value was determined as 1.0%.

Consider `CCOc1cncc(C#Cc2cc(C(=O)N3CCN(c4ccc(C(=O)NS(=O)(=O)CCC(F)(F)F)nn4)CC3)cc(C(F)(F)F)c2)c1` [Compound B2N020-01, 6-[4-[3-[2-(5-Ethoxypyridin-3-yl)ethynyl]-5-(trifluoromethyl)benzoyl]piperazin-1-yl]-N-(3,3,3-trifluoropropylsulfonyl)pyridazine-3-carboxamide], for which the “ASMS ratio (%) n = 1” value is recorded as 0.0% and the “ASMS ratio (%) n = 2” value was 0.0%.

In the case of `CCOc1cccc(-c2cnn(-c3cc(C(=O)N4CCN(c5ccc(C(=O)NS(=O)(=O)CCC(F)(F)F)nn5)CC4)cc(C(F)(F)F)c3)c2)c1` [Compound B2N021-01, 6-[4-[3-[4-(3-Ethoxyphenyl)pyrazol-1-yl]-5-(trifluoromethyl)benzoyl]piperazin-1-yl]-N-(3,3,3-trifluoropropylsulfonyl)pyridazine-3-carboxamide], the “ASMS ratio (%) n = 2” value turned out to be 0.0%.

Turning to `CCOc1cncc(-c2cnn(-c3cc(C(=O)N4CCN(c5ccc(C(=O)NS(=O)(=O)CCC(F)(F)F)nn5)CC4)cc(C(F)(F)F)c3)c2)c1` [Compound B2N022-01, 6-[4-[3-[4-(5-Ethoxypyridin-3-yl)pyrazol-1-yl]-5-(trifluoromethyl)benzoyl]piperazin-1-yl]-N-(3,3,3-trifluoropropylsulfonyl)pyridazine-3-carboxamide], the “ASMS ratio (%) n = 1” value is 0.0% and the “ASMS ratio (%) n = 2” value was determined as 0.0%.

As to `CCOc1cccc(-c2csc(C(=O)N3CCN(c4ccc(C(=O)NS(=O)(=O)CCC(F)(F)F)cc4)CC3)c2)c1` [Compound B2N023-01, 4-[4-[4-(3-Ethoxyphenyl)thiophene-2-carbonyl]piperazin-1-yl]-N-(3,3,3-trifluoropropylsulfonyl)benzamide], the “ASMS ratio (%) n = 1” value came to 0.0% and the “ASMS ratio (%) n = 2” value was 0.0%.

The record behind these values is patent US20250154686A1, “COMPOUND LIBRARY” (CHUGAI SEIYAKU KABUSHIKI KAISHA, priority 2021, published 2025).
